These results are taken from patent US12138256B2, “Treatment of cardiopulmonary disorders” (Bayer Aktiengesellschaft, priority 2021, dated 2024).

The series can be described thus: Thermal stability of the solid (90° C., 7 days, HPLC peak areas). It counts as physicochemical. The protocol:
0.3 mg of the test compound, e.g. comparative example 11 were solved in 0.1 ml dimethylsulfoxide and 0.4 ml acetonitrile. Then 1.0 ml water was added. For complete dissolution the HPLC vial was shaken and sonicated. This solution was immediately analyzed by HPLC (reference at t0). 0.3 mg of the test compound was weighed into another HPLC vial. The vial was capped and stored for 7 days in a heating block at 90° C.
After this time the vial was decapped and 0.1 ml dimethylsulfoxide and 0.4 ml acetonitrile were added to the stressed compound. Then 1.0 ml water was added. For complete dissolution the HPLC vial was shaken and sonicated. The sample was analyzed by HPLC (sample after 1 week). The peak areas in percentage are used for quantification.
As to `O=C(O)CCCCN(CCc1ccccc1OCc1ccc(-c2nc3cc(C(F)(F)F)ccc3o2)cc1)C1CCCc2nc(C(=O)O)ccc21` (single isomer, unassigned) [comparative example 7, 5-[(4-carboxybutyl)(2-[2-({4-[5-(trifluoromethyl)-1,3-benzoxazol-2-yl]benzyl}oxy)phenyl]ethyl)amino]-5,6,7,8-tetrahydroquinoline-2-carboxylic acid], the thermal stability result is “limited thermal stability”.

With `O=C(O)CCCCN(CCc1ccccc1OCc1ccc(-c2nc3cc(OC(F)(F)F)ccc3o2)cc1)C1CCCc2nc(C(=O)O)ccc21` (single isomer, unassigned) [comparative example 8, 5-[(4-carboxybutyl){2-[2-({4-[5-(trifluoromethoxy)-1,3-benzoxazol-2-yl]benzyl}oxy)phenyl]ethyl}-amino]-5,6,7,8-tetrahydroquinoline-2-carboxylic acid], the thermal stability result is “limited thermal stability”.

On to `N#Cc1ccc2oc(-c3ccc(COc4ccccc4CCN(CCCCC(=O)O)C4CCCc5nc(C(=O)O)ccc54)cc3)nc2c1` (single isomer, unassigned) [comparative example 10, 5-{(4-carboxybutyl)[2-(2-{[4-(5-cyano-1,3-benzoxazol-2-yl)benzyl]oxy}phenyl)ethyl]amino}-5,6,7,8-tetrahydroquinoline-2-carboxylic acid], for which the thermal stability result was “limited thermal stability”.

For `O=C(O)c1ccc(CCN(CCc2ccccc2OCc2ccc(-c3nc4cc(OC(F)(F)F)ccc4o3)cc2)C2CCCc3nc(C(=O)O)ccc32)cc1` (single isomer, unassigned) [comparative example 9, 5-([2-(4-carboxyphenyl)ethyl]{2-[2-({4-[5-(trifluoromethoxy)-1,3-benzoxazol-2-yl]benzyl}oxy)-phenyl]ethyl}amino)-5,6,7,8-tetrahydroquinoline-2-carboxylic acid], the thermal stability entry is given as “limited thermal stability”.

For the compound `O=C(O)c1ccc(CCN(CCc2ccccc2OCc2ccc(-c3nc4cc(C(F)(F)F)ccc4o3)cc2)C2CCCc3nc(C(=O)O)ccc32)cc1` (single isomer, unassigned) [comparative example 6, 5-([2-(4-carboxyphenyl)ethyl]{2-[2-({4-[5-(trifluoromethyl)-1,3-benzoxazol-2-yl]benzyl}oxy)phenyl]-ethyl}amino)-5,6,7,8-tetrahydroquinoline-2-carboxylic acid], the thermal stability entry is “limited thermal stability”.
